This passage reports IC50 results from US11149018B2, “Substituted N-arylethyl-2-aminoquinoline-4-carboxamides and use thereof” (Bayer Aktiengesellschaft, priority 2017, dated 2021).

For the test, the target named is FP receptor (Homo sapiens (Human), UniProt P43088). The experiment in a line: In vitro test of inhibition of human FP receptor activity (PGF2α-induced calcium flux in FP-expressing CHEM1 cells). The conditions noted are these: PGF2α 2 nM, some mean values of multiple determinations. Type of test: cell-based. Put shortly: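 FP antagonism in FP-expressing CHEM1 cells loaded with Fluo-8. Compound preincubated 10 min at 37° C, then receptor stimulated with 2 nM (final) PGF2α in calcium-free Tyrode with 2 mM CaCl2.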
Chain of FP receptor (P43088 whole entry): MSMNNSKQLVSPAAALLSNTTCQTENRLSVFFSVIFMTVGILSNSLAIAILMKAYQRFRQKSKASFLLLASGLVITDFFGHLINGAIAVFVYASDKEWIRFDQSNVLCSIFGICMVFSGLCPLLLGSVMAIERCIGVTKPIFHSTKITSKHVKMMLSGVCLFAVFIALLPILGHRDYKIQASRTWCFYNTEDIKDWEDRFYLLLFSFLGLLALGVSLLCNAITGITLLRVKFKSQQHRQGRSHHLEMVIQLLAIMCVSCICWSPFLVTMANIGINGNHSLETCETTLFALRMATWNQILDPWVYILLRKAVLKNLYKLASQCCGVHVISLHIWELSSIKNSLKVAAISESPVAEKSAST
(In general: A change in cytosolic calcium serves as a functional read-out for many receptors and channels.)

As to `Cc1c(N2CCCC(F)C2)nc2ccc(Br)cc2c1C(=O)NCC(CCC(=O)O)c1ccccc1C(F)(F)F` (single isomer, unassigned) [Example 191, 5-[({6-Bromo-2-[3-fluoropiperidin-1-yl]-3-methylquinolin-4-yl}carbonyl)amino]-4-[2-(trifluoromethyl)phenyl]pentanoic acid], the IC50 was determined as 4.1 nM.

Regarding `Cc1c(N2CCCC(F)C2)nc2ccc(Br)cc2c1C(=O)NCC(CCC(=O)O)c1ccccc1C(F)(F)F` (single isomer, unassigned) [Example 192, 5-[({6-Bromo-2-[3-fluoropiperidin-1-yl]-3-methylquinolin-4-yl}carbonyl)amino]-4-[2-(trifluoromethyl)phenyl]pentanoic acid], the IC50 was 5.6 nM.

As for `CCC1CCCN(c2nc3ccc(Br)cc3c(C(=O)NCC(CCC(=O)O)c3ccccc3C(F)(F)F)c2C)C1` (single isomer, unassigned) [Example 195, 5-[({6-Bromo-2-[3-ethylpiperidin-1-yl]-3-methylquinolin-4-yl}carbonyl)amino]-4-[2-(trifluoromethyl)phenyl]pentanoic acid], the IC50 is 77 nM.

With `CCC1CCCN(c2nc3ccc(Br)cc3c(C(=O)NCC(CCC(=O)O)c3ccccc3OC(F)(F)F)c2C)C1` (single isomer, unassigned) [Example 206, 5-[({6-Bromo-2-[3-ethylpiperidin-1-yl]-3-methylquinolin-4-yl}carbonyl)amino]-4-[2-(trifluoromethoxy)phenyl]pentanoic acid], the IC50 was 9.5 nM.

For `Cc1c(N2CCCCCC2)nc2ccc(Br)cc2c1C(=O)NCC(CCC(=O)O)c1c(F)ccc(F)c1Cl` (single isomer, unassigned) [Example 220, 5-({[2-(Azepan-1-yl)-6-bromo-3-methylquinolin-4-yl]carbonyl}amino)-4-(2-chloro-3,6-difluorophenyl)pentanoic acid], the IC50 was 0.76 nM.

Turning to `Cc1c(N2CCCC(F)C2)nc2ccc(Br)cc2c1C(=O)NCC(CCC(=O)O)c1c(Cl)ccc(Cl)c1Cl` (single isomer, unassigned) [Example 221, 5-[({6-Bromo-2-[3-fluoropiperidin-1-yl]-3-methylquinolin-4-yl}carbonyl)amino]-4-(2,3,6-trichlorophenyl)pentanoic acid], the IC50 was 8.4 nM.

Consider `Cc1c(N2CCCC(F)C2)nc2ccc(Br)cc2c1C(=O)NCC(CCC(=O)O)c1c(Cl)ccc(Cl)c1Cl` (single isomer, unassigned) [Example 222, 5-[({6-Bromo-2-[3-fluoropiperidin-1-yl]-3-methylquinolin-4-yl}carbonyl)amino]-4-(2,3,6-trichlorophenyl)pentanoic acid], for which the half-maximal inhibitory concentration (IC50) was determined as 3 nM.

Take `Cc1c(N2CCCC(F)C2)nc2ccc(Br)cc2c1C(=O)NCC(CCC(=O)O)c1c(Cl)ccc(Cl)c1Cl` (single isomer, unassigned) [Example 223, 5-[({6-Bromo-2-[3-fluoropiperidin-1-yl]-3-methylquinolin-4-yl}carbonyl)amino]-4-(2,3,6-trichlorophenyl)pentanoic acid]: the IC50 was determined as 140 nM.

For `Cc1c(N2CCCC(F)C2)nc2ccc(Br)cc2c1C(=O)NCC(CCC(=O)O)c1c(Cl)ccc(Cl)c1Cl` (single isomer, unassigned) [Example 224, 5-[({6-Bromo-2-[3-fluoropiperidin-1-yl]-3-methylquinolin-4-yl}carbonyl)amino]-4-(2,3,6-trichlorophenyl)pentanoic acid], the IC50 is 38 nM.

In the case of `Cc1c(N2CCCC2)nc2ccc(Br)cc2c1C(=O)NCC(CCC(=O)O)c1c(F)cccc1F` (single isomer, unassigned) [Example 248, 5-({[6-Bromo-3-methyl-2-(pyrrolidin-1-yl)quinolin-4-yl]carbonyl}amino)-4-(2,6-difluorophenyl)pentanoic acid], the IC50 worked out at 120 nM.

Turning to `Cc1c(N2CCCCC2)nc2ccc(Br)cc2c1C(=O)NCC(CC(=O)O)c1c(F)cccc1Cl` (single isomer, unassigned; (+)) [Example 3, (+)-4-({[6-Bromo-3-methyl-2-(piperidin-1-yl)quinolin-4-yl]carbonyl}amino)-3-(2-chloro-6-fluorophenyl)butanoic acid], the IC50 was 92 nM.

Consider `Cc1c(N2CCCCC2)nc2ccc(Br)cc2c1C(=O)NCC(CCC(=O)O)c1cc(F)ccc1Cl` (single isomer, unassigned; (+)) [Example 7, (+)-5-({[6-Bromo-3-methyl-2-(piperidin-1-yl)quinolin-4-yl]carbonyl}amino)-4-(2-chloro-5-fluorophenyl)pentanoic acid], for which the IC50 was found to be 6.6 nM.

`Cc1c(N2CCSCC2)nc2ccc(Br)cc2c1C(=O)NCC(CCC(=O)O)c1ccccc1Cl` (single isomer, unassigned; (+)) [Example 26, (+)-5-({[6-Bromo-3-methyl-2-(thiomorpholin-4-yl)quinolin-4-yl]carbonyl}amino)-4-(2-chlorophenyl)pentanoic acid]: the IC50 amounted to 21 nM.

For `Cc1c(N2CCCO2)nc2ccc(Br)cc2c1C(=O)NCC(CCC(=O)O)c1ccccc1Cl` (single isomer, unassigned; (+)) [Example 40, (+)-5-({[6-Bromo-3-methyl-2-(1,2-oxazolidin-2-yl)quinolin-4-yl]carbonyl}amino)-4-(2-chlorophenyl)pentanoic acid], the IC50 was determined as 62 nM.

With `Cc1c(N2CCCC(C)(C)C2)nc2ccc(Br)cc2c1C(=O)NCC(CCC(=O)O)c1ccccc1Cl` (single isomer, unassigned; (+)) [Example 44, (+)-5-({[6-Bromo-2-(3,3-dimethylpiperidin-1-yl)-3-methylquinolin-4-yl]carbonyl}amino)-4-(2-chlorophenyl)pentanoic acid], the IC50 amounted to 120 nM.

In the case of `Cc1c(N2CCCC(C)C2)nc2ccc(Br)cc2c1C(=O)NCC(CCC(=O)O)c1ccccc1Cl` (single isomer, unassigned; (+)) [Example 47, (+)-5-[({6-Bromo-3-methyl-2-[3-methylpiperidin-1-yl]quinolin-4-yl}carbonyl)amino]-4-(2-chlorophenyl)pentanoic acid], the IC50 came to 14 nM.

`Cc1c(N2CCCC(C)C2)nc2ccc(Br)cc2c1C(=O)NCC(CCC(=O)O)c1ccccc1Cl` (single isomer, unassigned; (+)) [Example 48, (+)-5-[({6-Bromo-3-methyl-2-[3-methylpiperidin-1-yl]quinolin-4-yl}carbonyl)amino]-4-(2-chlorophenyl)pentanoic acid]: the IC50 is 1.2 nM.

Take `Cc1c(N2CCCC(F)(F)C2)nc2ccc(Br)cc2c1C(=O)NCC(CCC(=O)O)c1ccccc1Cl` (single isomer, unassigned; (+)) [Example 52, (+)-5-({[6-Bromo-2-(3,3-difluoropiperidin-1-yl)-3-methylquinolin-4-yl]carbonyl}amino)-4-(2-chlorophenyl)pentanoic acid]: the IC50 is 7.1 nM.

With `CCC1CCCN(c2nc3ccc(Br)cc3c(C(=O)NCC(CCC(=O)O)c3ccccc3Cl)c2C)C1` (single isomer, unassigned; (+)) [Example 58, (+)-5-[({6-Bromo-2-[3-ethylpiperidin-1-yl]-3-methylquinolin-4-yl}carbonyl)amino]-4-(2-chlorophenyl)pentanoic acid], the IC50 was 0.52 nM.

As to `CCC1CCCN(c2nc3ccc(Br)cc3c(C(=O)NCC(CCC(=O)O)c3ccccc3Cl)c2C)C1` (single isomer, unassigned; (+)) [Example 61, (+)-5-[({6-Bromo-2-[3-ethylpiperidin-1-yl]-3-methylquinolin-4-yl}carbonyl)amino]-4-(2-chlorophenyl)pentanoic acid], the IC50 worked out at 0.83 nM.

Turning to `Cc1c(N2CC[C@@H](F)C2)nc2ccc(Br)cc2c1C(=O)NCC(CCC(=O)O)c1ccccc1Cl` (single isomer, unassigned; (+)) [Example 67], the IC50 is 6.5 nM.

Consider `Cc1c(N2CC[C@@H](F)C2)nc2ccc(Br)cc2c1C(=O)NCC(CCC(=O)O)c1ccccc1Cl` (single isomer, unassigned; (+)) [Example 68], for which the half-maximal inhibitory concentration (IC50) was 14 nM.

`Cc1c(N2CCC[C@H]2C)nc2ccc(Br)cc2c1C(=O)NCC(CCC(=O)O)c1ccccc1Cl` (single isomer, unassigned; (+)) [Example 82]: the IC50 worked out at 3.9 nM.

Regarding `Cc1c(N2CCC[C@H]2C)nc2ccc(Br)cc2c1C(=O)NCC(CCC(=O)O)c1ccccc1Cl` (single isomer, unassigned; (+)) [Example 83], the IC50 was 6.4 nM.

For the compound `Cc1c(N2CCCCC2)nc2ccc(Br)cc2c1C(=O)NCC(CCC(=O)O)c1ccccc1C(F)(F)F` (single isomer, unassigned; (+)) [Example 113, (+)-5-({[6-Bromo-3-methyl-2-(piperidin-1-yl)quinolin-4-yl]carbonyl}amino)-4-[2-(trifluoromethyl)phenyl]pentanoic acid], the IC50 was found to be 9.9 nM.

In the case of `Cc1c(N2CCCC2)nc2ccc(Br)cc2c1C(=O)NCC(CCC(=O)O)c1ccccc1C(F)(F)F` (single isomer, unassigned; (+)) [Example 115, (+)-5-({[6-Bromo-3-methyl-2-(pyrrolidin-1-yl)quinolin-4-yl]carbonyl}amino)-4-[2-(trifluoromethyl)phenyl]pentanoic acid], the IC50 is 29 nM.

As for `Cc1c(N2CCCC(F)(F)C2)nc2ccc(Br)cc2c1C(=O)NCC(CCC(=O)O)c1ccccc1C(F)(F)F` (single isomer, unassigned; (+)) [Example 119, (+)-5-({[6-Bromo-2-(3,3-difluoropiperidin-1-yl)-3-methylquinolin-4-yl]carbonyl}amino)-4-[2-(trifluoromethyl)phenyl]pentanoic acid], the IC50 worked out at 14 nM.

Take `Cc1c(N2CCCCCC2)nc2ccc(Br)cc2c1C(=O)NCC(CCC(=O)O)c1ccccc1C(F)(F)F` (single isomer, unassigned; (+)) [Example 122, (+)-5-({[2-(Azepan-1-yl)-6-bromo-3-methylquinolin-4-yl]carbonyl}amino)-4-[2-(trifluoromethyl)phenyl]pentanoic acid]: the IC50 was 6.7 nM.

The term IC50 denotes the concentration that inhibits the measured activity by half.
